# Test results as given in PubChem BioAssay AID340 (DTP/NCI, 2004).
# Values joined by “and” are separate entries in the source; they are usually repeats but may differ in a detail not shown here. Identical values can stand only once. Inconclusive results and toxic doses are left out.
# Test system: CD2F1 mice, ip reticulum cell sarcoma, survival T/C
# Assay: NCI In Vivo Anticancer Drug Screen. Data for tumor model Reticulum Cell Sarcoma (Kelley Mouse) (intraperitoneal) in CD2F1 (CDF1) mice
# Settings: endpoint: median survival time, schedule: Q01DX010 (ip), higher = longer survival
# Procedure: The antitumor activity of compounds was measured in mice bearing transplantable tumors. Survival or tumor size were measured and the results are expressed as the measurement made in the treated group (T) divided by the measurement made in the vehicle treated control group (C). The tumor model used in this assay is Reticulum Cell Sarcoma (Kelley Mouse) (intraperitoneal) in CD2F1 (CDF1) mice
# [1] = dose: 7.5 mg/kg/injection, vehicle: saline
# [2] = dose: 15.0 mg/kg/injection, vehicle: saline
# [3] = dose: 30.0 mg/kg/injection, vehicle: saline
# [4] = dose: 31.3 mg/kg/injection, vehicle: saline
# [5] = dose: 62.5 mg/kg/injection, vehicle: saline
# [6] = dose: 125.0 mg/kg/injection, vehicle: saline
# [7] = dose: 250.0 mg/kg/injection, vehicle: saline
# [8] = dose: 500.0 mg/kg/injection, vehicle: saline
# [9] = dose: 2.5 mg/kg/injection, vehicle: saline
# [10] = dose: 5.0 mg/kg/injection, vehicle: saline
# [11] = dose: 10.0 mg/kg/injection, vehicle: saline
# [12] = dose: 2.0 mg/kg/injection, vehicle: saline
# [13] = dose: 4.0 mg/kg/injection, vehicle: saline
# [14] = dose: 8.0 mg/kg/injection, vehicle: saline
# [15] = dose: 16.0 mg/kg/injection, vehicle: saline
smiles,measurement,setting,value
N#CCSc1ncnc2nc[nH]c12,T/C,[1],100 % of control
same,T/C,[2],103 % of control
same,T/C,[3],100 % of control and 103 % of control
same,T/C,"dose: 60.0 mg/kg/injection, vehicle: saline",103 % of control and 106 % of control
CCCCNc1ncnc2c1cnn2C,T/C,[4],95 % of control and 100 % of control
same,T/C,[5],94 % of control and 102 % of control
same,T/C,[6],90 % of control and 100 % of control
CC(=O)N(C)C,T/C,[5],100 % of control and 107 % of control
same,T/C,[6],95 % of control and 102 % of control
same,T/C,[7],97 % of control and 105 % of control
same,T/C,[8],90 % of control and 100 % of control
CN(C)[C@@H]1C(=O)C(C(N)=O)=C(O)[C@@]2(O)C(=O)C3=C(O)c4c(O)cccc4C[C@H]3C[C@@H]12,T/C,"dose: 3.75 mg/kg/injection, vehicle: saline",100 % of control
same,T/C,[1],105 % of control and 107 % of control
same,T/C,[2],100 % of control and 102 % of control
same,T/C,[3],94 % of control and 100 % of control
CCCSc1ncnc2nc[nH]c12,T/C,[4],100 % of control and 112 % of control
same,T/C,[5],96 % of control and 106 % of control
same,T/C,[6],96 % of control and 106 % of control
same,T/C,[7],109 % of control
COC(=O)[C@@H]1c2cc3c(c(O)c2[C@@H](OC2OC(C)C(OC)C(C)(OC)C2OC)C[C@]1(C)O)C(=O)c1c(O)cc2c(c1C3=O)O[C@H]1O[C@]2(C)[C@H](O)[C@@H](N(C)C)[C@@H]1O (stereo not given in full),T/C,"dose: 63.0 micrograms/kg/injection, vehicle: saline",103 % of control
same,T/C,"dose: 125.0 micrograms/kg/injection, vehicle: saline",103 % of control and 105 % of control
same,T/C,"dose: 250.0 micrograms/kg/injection, vehicle: saline",103 % of control and 105 % of control
same,T/C,"dose: 500.0 micrograms/kg/injection, vehicle: saline",100 % of control
same,T/C,"dose: 1000.0 micrograms/kg/injection, vehicle: saline",94 % of control
N#[N+]c1cnc([O-])[nH]c1=O,T/C,"dose: 1.25 mg/kg/injection, vehicle: saline",100 % of control
same,T/C,[9],100 % of control and 112 % of control
same,T/C,[10],112 % of control and 118 % of control
same,T/C,[11],106 % of control
O=C(Nc1ccc(NC2=NCCN2)cc1)c1ccc(C(=O)Nc2ccc(NC3=NCCN3)cc2)cc1,T/C,[12],120 % of control and 121 % of control
same,T/C,[13],168 % of control
same,T/C,[14],167 % of control and 200 % of control
same,T/C,[15],107 % of control and 121 % of control
OCC1OC(n2cnc3c(=S)nc[nH]c32)C(O)C1O (stereo not given),T/C,"dose: 20.0 mg/kg/injection, vehicle: saline",117 % of control
same,T/C,"dose: 80.0 mg/kg/injection, vehicle: saline",170 % of control and 177 % of control
same,T/C,"dose: 160.0 mg/kg/injection, vehicle: saline",180 % of control
CS(=O)(=O)OCC(O)C(O)C(O)C(O)COS(C)(=O)=O (stereo not given),T/C,"dose: 25.0 mg/kg/injection, vehicle: saline",102 % of control
same,T/C,"dose: 50.0 mg/kg/injection, vehicle: saline",100 % of control and 111 % of control
same,T/C,"dose: 100.0 mg/kg/injection, vehicle: saline",100 % of control and 102 % of control
same,T/C,"dose: 200.0 mg/kg/injection, vehicle: saline",100 % of control and 111 % of control
same,T/C,"dose: 400.0 mg/kg/injection, vehicle: saline",110 % of control
S=P(N1CCOCC1)(N1CC1)N1CC1,T/C,[9],100 % of control and 103 % of control
same,T/C,[10],100 % of control and 106 % of control
same,T/C,[11],100 % of control and 106 % of control
Nc1nc(=S)c2ncn(C3OC(CO)C(O)C3O)c2[nH]1 (stereo not given),T/C,"dose: 1.0 mg/kg/injection, vehicle: saline",178 % of control
same,T/C,[12],182 % of control
same,T/C,[13],103 % of control
CC(CCC(C)OS(C)(=O)=O)OS(C)(=O)=O (stereo not given),T/C,[13],100 % of control
same,T/C,[14],103 % of control and 106 % of control
same,T/C,[15],100 % of control and 109 % of control
same,T/C,"dose: 32.0 mg/kg/injection, vehicle: saline",109 % of control and 112 % of control
OCC1OC(n2cnc3c(Cl)ncnc32)C(O)C1O (stereo not given),T/C,[5],97 % of control and 100 % of control
same,T/C,[6],92 % of control and 100 % of control
same,T/C,[7],95 % of control and 102 % of control
same,T/C,[8],91 % of control and 92 % of control
NC(Cc1ccc(N(CCCl)CCCl)cc1)C(=O)O (stereo not given),T/C,[11],100 % of control
O=C(Nc1ccc(C2=NCCN2)cc1)c1ccc(C(=O)Nc2ccc(C3=NCCN3)cc2)cc1,T/C,"dose: 4.0 mg/kg/injection, vehicle: other",168 % of control
same,T/C,"dose: 8.0 mg/kg/injection, vehicle: other",277 % of control and 302 % of control
same,T/C,"dose: 16.0 mg/kg/injection, vehicle: other",242 % of control and 302 % of control
same,T/C,"dose: 32.0 mg/kg/injection, vehicle: other",166 % of control and 231 % of control
same,T/C,"dose: 64.0 mg/kg/injection, vehicle: other",168 % of control
